The source of these data is patent publication US4973592A, “1,3-diazocycloalkenes as muscarinic receptor blocking agents” (Istituto de Angeli, priority 1987, dated 1990).

The target of experiment [1] is T1, isolated guinea pig ileum (bethanechol induced contractions) (Cavia porcellus, UniProt H0W1Z3).
T1 construct: a 2 cm piece of terminal ileum was rapidly excised; from tissue; host or cells: guinea pig terminal ileum (Dunkin Hartley)
The experiment in a line: antispasmodic activity on isolated guinea pig ileum with bethanechol as spasmogen. On the set-up: species or system guinea pig (Dunkin Hartley). The settings on record: cumulative bethanechol 0.3-30 μM, antagonist 60 min before, Tyrode solution, 37° C.; KB from dose-ratio; read-out: Antispasmodic activity. Dissociation constants (KB) for bethanechol induced contractions in the guinea pig ileum.

The target in experiment [2] is T2, muscarinic receptors of the cerebral cortex (Rattus norvegicus, UniProt P08482).
T2 sequence (P08482 1-460): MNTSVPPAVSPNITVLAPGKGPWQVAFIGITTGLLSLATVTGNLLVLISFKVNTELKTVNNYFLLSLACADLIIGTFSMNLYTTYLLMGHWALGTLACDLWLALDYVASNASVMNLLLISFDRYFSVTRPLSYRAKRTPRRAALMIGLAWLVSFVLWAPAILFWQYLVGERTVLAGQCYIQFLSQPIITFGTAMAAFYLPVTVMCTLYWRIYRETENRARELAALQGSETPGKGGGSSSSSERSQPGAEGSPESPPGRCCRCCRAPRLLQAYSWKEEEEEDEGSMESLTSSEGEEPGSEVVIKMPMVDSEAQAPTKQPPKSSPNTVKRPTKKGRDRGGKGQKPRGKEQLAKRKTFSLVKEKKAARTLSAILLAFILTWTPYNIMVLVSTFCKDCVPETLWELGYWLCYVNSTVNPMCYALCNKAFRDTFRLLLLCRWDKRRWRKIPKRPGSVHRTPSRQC
As to the kind of experiment: biochemical. On the set-up: species or system male CD-COOBBS rats. The conditions noted are these: read-out: Antimuscarinic effect. Dissociation constants (KD) for ^3 H-pirenzepine binding.

[3] abbreviates: competition against 0.5 nM ^3 H-pirenzepine, rat cerebral cortex homogenate, 45 min at 30° C., pH 7.4, corrected for radioligand occupancy shift.

Structures are written as SMILES. Counter-ions that a name gives are not always drawn. Like-named read-outs stand apart in the source and are kept apart here.

T1 sequence (H0W1Z3 1-590): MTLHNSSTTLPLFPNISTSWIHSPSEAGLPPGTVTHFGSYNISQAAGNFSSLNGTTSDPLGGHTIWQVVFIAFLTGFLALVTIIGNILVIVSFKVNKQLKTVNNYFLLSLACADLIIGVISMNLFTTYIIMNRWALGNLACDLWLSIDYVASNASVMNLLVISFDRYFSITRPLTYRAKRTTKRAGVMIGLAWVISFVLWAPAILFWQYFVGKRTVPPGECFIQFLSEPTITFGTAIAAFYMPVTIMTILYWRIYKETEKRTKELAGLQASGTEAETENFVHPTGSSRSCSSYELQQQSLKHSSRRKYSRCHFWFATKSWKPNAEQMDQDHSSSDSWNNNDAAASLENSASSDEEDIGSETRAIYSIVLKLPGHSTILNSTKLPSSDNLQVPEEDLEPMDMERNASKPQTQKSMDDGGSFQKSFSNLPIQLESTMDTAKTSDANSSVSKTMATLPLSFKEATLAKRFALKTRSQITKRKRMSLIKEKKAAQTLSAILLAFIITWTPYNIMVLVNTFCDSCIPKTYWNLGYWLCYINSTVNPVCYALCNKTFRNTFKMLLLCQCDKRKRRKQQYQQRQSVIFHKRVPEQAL

For `CC1=NCCN1CCCC(O)(c1ccccc1)C1CCCCC1` (stereo not drawn) [Compound 21, 1-(4-Phenyl-4-cyclohexyl-4-hydroxy)butyl-2-methyl-2-imidazoline hydrochloride], the Kb in experiment [1] worked out at 3.4 nM. For the same molecule, the Kd in experiment [2] (setting [3]) turned out to be 7.4 nM.
The like results for `OC(CCN1C=NCCC1)(c1ccccc1)C1CCCCC1` (stereo not drawn) [Compound 1, 1-(3-Phenyl-3-cyclohexyl-3-hydroxy)propyl-1,4,5,6-tetrahydropyrimidine hydrochloride] were, in that order, 1 nM and 4.2 nM.
As to `NC1=NCC(OC(=O)C2(C3CCCCC3)CCCCC2)CN1` (stereo not drawn) [Compound 15, 2-Amino-1,4,5,6-tetrahydropyrimidin-5-yl 1-cyclohexylcyclohexane-1-carboxylate formate], in experiment [1], the Kb worked out at 0.46 nM. Moreover, the Kd in experiment [2] was determined as 2.7 nM.
For `OC(CCN1C=NCC1)(c1ccccc1)C1CCCCC1` (stereo not drawn) [Compound 23, 1-(3-phenyl-3-cyclohexyl-3-hydroxy)propyl-2-imidazoline hydrochloride], in experiment [1], the Kb amounted to 6.2 nM. Moreover, the Kd in experiment [2] (setting [3]) amounted to 14 nM.
As for `CC1=NCCN1CCC(O)(c1ccccc1)C1CCCCC1` (stereo not drawn) [Compound 2, 1-(3-Phenyl-3-cyclohexyl-3-hydroxy)propyl-2-methyl-2-imidazoline hydrochloride], the Kb in experiment [1] was found to be 1.7 nM. In experiment [2] (setting [3]), the Kd worked out at 3 nM.
`OC(CCCN1C=NCCC1)(c1ccccc1)C1CCCCC1` (stereo not drawn) [Compound 22, 1-(4-Phenyl-4-cyclohexyl-4-hydroxy)butyl-1,4,5,6-tetrahydropyrimidine hydrochloride]: the Kb in experiment [1] amounted to 1.5 nM. Moreover, the Kd in experiment [2] (setting [3]) stood at 5 nM.
